Measured values: patent publication US5858684A, “Method of screening calcium receptor-active molecules” (priority 1995, dated 1999)
Entries after “also recorded” stand apart in the source; their conditions may differ. Like-named read-outs stand apart in the source and are kept apart here.

How the values were obtained:
[1] = tested on: human parathyroid calcium receptor (HuPCaR 5.2) in HEK293 cells; experiment: intracellular calcium in HEK293 cells transfected with HuPCaR 5.2; type: cell-based; details: Ca2+ 10 mM; Mg2+ 20 mM
Procedure: Cells obtained from the pool of hygromycin selected HEK293 cells transfected with Cep4B containing the HuPCaR 5.2 insert were plated on collagen coated Aklar squares which had been placed into individual wells of 12-well tissue culture plates. Two to six days later, medium was removed and the cells washed with balanced salt solution and 1 ml of buffer containing 1 μM fura2-AM, 1 mM CaCl2 and 0.1% BSA and 1 mM CaCl2. Measurements of fluorescence in response to calcium receptor agonists were performed at 37° C. in a spectrofluorimeter using excitation and emission wavelengths of 340 and 510 nm, respectively. For signal calibration, Fmax was determined after addition of ionomycin (40 μM) and the apparent Fmin was determined by addition of 0.3M EGTA, 2.5M Tris-HCl; pH 10.

[2] = serum ionized Ca2+ in 5/6 nephrectomized rats (secondary hyperparathyroidism model); type: in vivo, rat; details: 10 mg/kg i.p.; within 2 hours
Text: An accepted and widely used animal model of secondary hyperparathyroidism arising from chronic renal failure is the 5/6 nephrectomized rat. Animals receiving such surgery become initially hypocalcemic and, to maintain serum Ca^2+ levels, there is a compensatory hyperplasia of the parathyro:Ld glands and elevated levels of circulating PTH. Male Spracue-Dawley rats (250 g) received a 5/6 nephrectomy and were allowed to recover for 2 weeks. At this time they were normocalcemic (due to elevated levels of serum PTH).

[3] = hypocalcemic response in nephrectomized rats; type: in vivo, rat; details: oral
Text: The decreases in serum levels of PTH together with. the resulting hypocalcemia are desirable therapeutic effects in cases of hyperparathyroidism.

circulating PTH in rats = type: in vivo, rat
[4] = plasma calcitonin in rats; type: in vivo, rat; details: p.o.
[5] = serum ionized calcium in a human; type: in vivo; details: higher oral doses
Text: A range of single oral doses was used to assess safety, tolerance, and changes in primary hyperparathyroidism markers (e.g., plasma concentrations of parathyroid hormone and ionized serum calcium) and of serum calcitonin.

[6] = tested on: increases in [Ca2+]i elicited by extracellular Ca2+ in bovine parathyroid cells; experiment: block of extracellular Ca2+-induced [Ca2+]i increase / Ca2+ influx in bovine parathyroid cells; type: cell-based; details: 30 μM
Procedure: (§1) The cells were then pelleted, resuspended in the same buffer, but lacking the ester, and incubated a further 15 minutes at 37° C. The cells were subsequently washed twice with PCB containing 0.5 mM CaCl2 and 0.5% BSA and maintained at room temperature (about 20° C.). Immediately before use, the cells were diluted five-fold with prewarmed 0.5 mM CaCl2 -PCB to obtain a final BSA concentration of 0.1%. The concentration of cells in the cuvette used for fluorescence recording was 1-2×10^6 /ml.
(§2) The fluorescence of indicator-loaded cells was measured at 37° C. in a spectrofluorimeter (Biomedical Instrumentation Group, University of Pennsylvania, Philadelphia, Pa.) equipped with a thermostated cuvette holder and magnetic stirrer using excitation and emission wavelengths of 340 and 510 nm, respectively. […] Leakage of dye is dependent on temperature and most occurs within the first 2 minutes after warming the cells in the cuvette. Dye leakage increases only very slowly thereafter. To correct the calibration for dye leakage, cells were placed in the cuvette and stirred at 37° C. for 2-3 minutes. The cell suspension was then removed, the cells pelleted, and the supernatant returned to a clean cuvette. […] This estimate was subtracted from the apparent Fmin.

[7] = tested on: cyclic AMP formation in bovine parathyroid cells; type: cell-based
Procedure: Cells were incubated as above for PTH secretion studies and at the end of the incubation, a 0.15-ml sample was taken and transferred to 0.85 ml of hot (70° C.) water and heated at this temperature for 5-10 minutes. The tubes were subsequently frozen and thawed several times and the cellular debris sedimented by centrifugation. Portions of the supernatant were acetylated and cyclic AMP concentrations determined by radioimmunoassay.
Each value is the mean±SEM of three experiments.

[8] = target: T1, calcium receptor expressed from human parathyroid cell mRNA in Xenopus oocytes (Homo sapiens, UniProt P41180); experiment: response of Xenopus oocytes injected with human parathyroid mRNA; type: cell-based
T1 sequence (P41180 20-1078): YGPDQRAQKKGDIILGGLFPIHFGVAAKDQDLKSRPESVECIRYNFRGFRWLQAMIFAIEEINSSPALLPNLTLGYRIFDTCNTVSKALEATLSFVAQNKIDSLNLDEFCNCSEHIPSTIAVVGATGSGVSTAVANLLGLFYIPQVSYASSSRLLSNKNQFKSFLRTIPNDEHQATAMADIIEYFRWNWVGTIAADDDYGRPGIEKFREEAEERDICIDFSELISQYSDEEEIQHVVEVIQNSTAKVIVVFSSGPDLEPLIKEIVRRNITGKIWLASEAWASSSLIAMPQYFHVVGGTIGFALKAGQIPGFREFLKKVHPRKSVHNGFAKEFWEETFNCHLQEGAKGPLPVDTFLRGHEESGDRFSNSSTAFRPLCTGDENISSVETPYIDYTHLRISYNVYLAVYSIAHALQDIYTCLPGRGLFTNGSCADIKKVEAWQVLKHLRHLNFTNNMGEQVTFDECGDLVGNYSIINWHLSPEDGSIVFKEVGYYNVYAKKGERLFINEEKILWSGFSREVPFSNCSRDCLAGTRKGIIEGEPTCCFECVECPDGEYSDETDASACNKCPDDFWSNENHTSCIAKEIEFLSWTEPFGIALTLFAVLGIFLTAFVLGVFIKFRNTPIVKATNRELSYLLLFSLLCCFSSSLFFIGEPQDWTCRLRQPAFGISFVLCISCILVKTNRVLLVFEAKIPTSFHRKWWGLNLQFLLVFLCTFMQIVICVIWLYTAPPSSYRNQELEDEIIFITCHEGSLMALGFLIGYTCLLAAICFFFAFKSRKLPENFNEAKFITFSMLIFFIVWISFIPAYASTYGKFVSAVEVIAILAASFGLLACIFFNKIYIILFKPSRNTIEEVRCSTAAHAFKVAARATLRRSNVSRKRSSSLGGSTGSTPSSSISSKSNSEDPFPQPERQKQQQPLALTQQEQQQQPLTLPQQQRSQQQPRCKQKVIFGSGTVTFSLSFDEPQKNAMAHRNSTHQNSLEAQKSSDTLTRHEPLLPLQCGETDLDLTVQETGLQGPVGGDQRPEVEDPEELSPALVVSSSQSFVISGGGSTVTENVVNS
Procedure: Oocytes were injected with poly(A)^+ -enriched mRNA from human parathyroid tissue (hyperplastic glands from a case of secondary HPT).
Glass capillary tubes (1 mm diameter) were pulled to a fine tip and manually broken to achieve a tip diameter of about 15 μmeters. A droplet of mRNA (1 ng/nl in diethylpyrocarbonate (DEPC)-treated water) was placed onto […]® and drawn into the capillary tube by suction. The capillary tube was then connected to a picospritzer (WPI Instruments) and the volume of the air-pulsed droplets adjusted to deliver 50 ng of mRNA (typically 50 nl). A 35-mm culture dish with a patch of nylon stocking fixed to the bottom was used to secure the oocytes during injection of mRNA into the vegetal pole. The injected oocytes were placed into a 35-mm culture dish containing MBS, 100 μg/ml penicillin and 100 μg/ml streptomycin and incubated at 18° C. for 3 days.
Following incubation, an oocyte was placed into a 100-μl plastic chamber and superfused with MBS at a flow rate of 0.5 ml/min using a peristaltic pump. Test molecules or inorganic polycations were added by rapidly moving the tubing into different buffers. Recording and current-passing electrodes were constructed from thin-wall capillary tubing pulled to a resistance of 1-3 Mohms and filled with 3M KCl. […] Currents were recorded directly onto a strip chart recorder.
Using this screen allows one to test for an action directly on the calcium receptor. Oocytes expressing the calcium receptor also responded to several molecules active on intact parathyroid cells when screened as follows. […] This offers rather compelling evidence showing that these molecules act on the calcium receptor or on some other protein intimately associated with its function.

[9] = target: T2, human parathyroid cells (calcium receptor) (Homo sapiens, UniProt P41180); type: cell-based
T2 sequence (P41180 20-1078): T1 sequence (P41180 20-1078)
Procedure: Human parathyroid glands, were obtained from patients undergoing surgical removal of parathyroid tissue for primary or uremic hyperparathyroidism (uremic HPT), and were treated similarly to bovine tissue.
as §1, §2

[10] = tested on: PTH secretion from bovine parathyroid cells; experiment: PTH secretion from bovine parathyroid cells; type: cell-based; details: bovine parathyroid cells
Procedure: PTH secretion was measured by first suspending cells in PCB containing 0.5 mM CaCl2 and 0.1% BSA.

SMILES: COc1cccc([C@@H](C)NCCCc2ccccc2)c1 (single isomer, unassigned) [NPS R-467]
- increase in intracellular calcium [1]: Robust increases
- serum ionized Ca2+ as % of controls [2]: 83 % of controls

SMILES: COc1cccc([C@@H](C)NCCCc2ccccc2Cl)c1 [NPS R-568, (R)-(+)-N-[3-(2-chlorophenyl)propyl]-amethyl-α-3-methoxybenzylamine]
- hypocalcemic response after complete nephrectomy [3]: only marginally affected
- circulating levels of PTH (circulating PTH in rats): decreases in the levels of serum PTH; also recorded: rapid, dose-dependent decrease
- plasma calcitonin [4]: an increase in calcitonin
- serum ionized calcium in human [5]: decrease in serum ionized calcium concentration

SMILES: NC[C@@H]1O[C@H](O[C@H]2[C@@H](O)[C@H](O[C@@H]3[C@@H](O)[C@H](N)C[C@H](N)[C@H]3O[C@H]3O[C@H](CN)[C@@H](O)[C@H](O)[C@H]3N)O[C@@H]2CO)[C@H](N)[C@@H](O)[C@@H]1O [Neomycin]
- effect on [Ca2+]i increases elicited by extracellular Ca2+ [6]: blocks transient, but does not block steady-state increases
- isoproterenol-induced cyclic AMP [7]: depressed isoproterenol-induced increases
- response of water-injected oocytes ([8]; 10 mM, water-injected control oocytes): failed to cause any change in the current
- concentration effective in oocytes ([8]; human parathyroid mRNA): 100 µM
- response of oocytes expressing calcium receptor ([8]; human parathyroid mRNA, listed as Neomycin B): evoked oscillatory increases
- response of oocytes expressing calcium receptor ([8]; human parathyroid mRNA, listed as neomycin B): evokes oscillating increases
- increase in [Ca2+]i (words) ([9]; 20 μM): evoked a large increase
- increase in [Ca2+]i (words) ([9]; human adenomatous tissue, 0.5 mM extracellular Ca2+, neomycin B 10 μM in FIG. 19, listed as Neomycin B): not only a transient, but additionally a steady-state increase
- increase in [Ca2+]i (words) ([9]; human adenomatous tissue, 0.5 mM extracellular Ca2+, neomycin B 10 μM in FIG. 19, listed as neomycin B): transient and sustained increases
- inhibition of PTH secretion [10]: inhibited PTH secretion to the same extent
